Data as given in article PMC8580996, “2-Oxoglutarate derivatives can selectively enhance or inhibit the activity of human oxygenases” (Nature Communications, 2021).
Several values for one entry are separate records, joined by “and”; a condition that tells them apart may be missing. Equal values may be shown once.

Tests used:
FIH = FIH (Homo sapiens, UniProt Q9NWT6); experiment: FIH steady-state kinetic parameters (SPE-MS, initial hydroxylation rates); assay type: biochemical; parameters: slope of initial reaction rate: unit not given here
Procedure: Final 2OG/2OG derivative concentrations are given in Supplementary Figs. 5 and 6. Reactions were monitored with a rate of ~1 sample/40 s using the same SPE-MS configuration as described above. Data were analyzed as described above and the slopes of the initial reaction rates (Supplementary Figs. 5 and 6) fitted to a Michaelis–Menten plot using non-linear regression (GraphPad Prism 5). […]
determine kinetic parameters for 2OG derivatives (continues on the following page). Maximum velocities (vapp ) and Michaelis constants (Kapp) of FIH were determined in independent triplicates for 2OG and the 2OG […]
SPE-MS as described in the Methods section. […]
acid (LAA), and 20 μM ammonium iron(II) sulfate hexahydrate (FAS, (NH4)2Fe(SO4)2·6H2O) in buffer (50 mM […]
Tris, 50 mM NaCl, pH 7.5, 20° C). […]
data are provided as a Source Data file. […]
concentrations of 2OG; (b) hydroxylation rates used to determine kinetic parameters of FIH for 2OG; (c) time […]
3-methyl-2OG (1); (d) hydroxylation rates used to determine kinetic parameters of FIH for 1; (e) time course of […]
2OG (12); (f) hydroxylation rates used to determine kinetic parameters of FIH for 12; (g) time course of the FIH- […]
(h) hydroxylation rates used to determine kinetic parameters of FIH for 14; (i) time course of the FIH-catalyzed […]
(carboxycarbonyl)cyclopentane-1-carboxylic acid (22); (j) hydroxylation rates used to determine kinetic parameters of FIH for 22.
Supplementary Figure 6. Hydroxylation rates of FIH-catalyzed CA1-20 hydroxylations used to determine kinetic parameters for 2OG derivatives (continues on the following page). Maximum velocities (vapp ) and […]
ammonium iron(II) sulfate hexahydrate (FAS, (NH4)2Fe(SO4)2·6H2O) in buffer (50 mM Tris, 50 mM NaCl, pH […]
Source data are provided as a Source […]
of 2OG; (b) hydroxylation rates used to determine kinetic parameters of FIH for 2OG; (c) time course of the FIH-catalyzed hydroxylation reaction of the CA1-20 peptide for the shown concentrations of 3-methyl-2OG (1); (d) hydroxylation rates used to determine kinetic parameters of FIH for 1; (e) time course of the FIH -catalyzed hydroxylation reaction of the CA 1-20 peptide for the shown concentrations of 4 -methyl-2OG (12); (f) hydroxylation rates used to determine kinetic parameters of FIH for 12; (g) time course of the FIH-catalyzed hydroxylation reaction of the CA1-20 peptide for the shown concentrations of 4-ethyl-2OG (14); (h) hydroxylation rates used to determine kinetic parameters of FIH for 14; (i) time course of the FIH-catalyzed hydroxylation reaction of the CA1-20 peptide for the shown concentrations of 3-(carboxycarbonyl)cyclopentane-1-carboxylic acid (22); (j) hydroxylation rates used to determine kinetic parameters of FIH for 22.

AspH = target: T1, AspH (Homo sapiens, UniProt Q12797); experiment: Competition assay in a single reaction vessel, AspH-catalyzed hydroxylation (SPE-MS); assay type: biochemical
T1 construct: the tetratricopeptide repeat domain (His6-AspH315-758), was produced and purified as previously reported; made in house
T1 sequence (Q12797 315-758): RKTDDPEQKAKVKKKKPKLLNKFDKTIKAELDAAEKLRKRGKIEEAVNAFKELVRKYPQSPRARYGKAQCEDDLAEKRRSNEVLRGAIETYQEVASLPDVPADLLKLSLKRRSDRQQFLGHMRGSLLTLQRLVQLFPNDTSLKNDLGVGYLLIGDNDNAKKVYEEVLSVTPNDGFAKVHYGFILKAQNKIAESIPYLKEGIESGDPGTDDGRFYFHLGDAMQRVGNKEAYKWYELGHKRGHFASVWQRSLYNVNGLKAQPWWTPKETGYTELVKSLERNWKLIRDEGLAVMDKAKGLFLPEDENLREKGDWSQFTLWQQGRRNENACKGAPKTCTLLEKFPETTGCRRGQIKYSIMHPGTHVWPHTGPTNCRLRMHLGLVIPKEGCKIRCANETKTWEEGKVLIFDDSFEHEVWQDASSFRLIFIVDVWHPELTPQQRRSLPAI

Sequence of FIH (Q9NWT6 whole entry): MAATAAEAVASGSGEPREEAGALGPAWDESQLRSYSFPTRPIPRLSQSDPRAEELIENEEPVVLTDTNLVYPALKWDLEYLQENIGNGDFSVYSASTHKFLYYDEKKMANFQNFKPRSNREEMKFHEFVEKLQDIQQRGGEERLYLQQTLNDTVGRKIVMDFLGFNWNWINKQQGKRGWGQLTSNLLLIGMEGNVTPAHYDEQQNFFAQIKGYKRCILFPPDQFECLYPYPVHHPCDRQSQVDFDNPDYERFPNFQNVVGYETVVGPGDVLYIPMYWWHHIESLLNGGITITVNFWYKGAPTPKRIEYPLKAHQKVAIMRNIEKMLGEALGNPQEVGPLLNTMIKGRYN

CCC(CC(=O)C(=O)O)C(=O)O (stereo not shown) [compound 14, 4-ethyl-2OG]
SPE-MS determined concentration of hydroxylated HIF-1a peptide (FIH; 0.5 uM compound 14, time 2.797 min): 0.04266 µM and 0.0716 µM and 0.08092 µM | SPE-MS determined concentration of hydroxylated HIF-1a peptide (FIH; 1 uM compound 14, time 2.797 min): 0.09973 µM and 0.05746 µM and 0.08941 µM | SPE-MS determined concentration of hydroxylated HIF-1a peptide (FIH; 1 uM compound 14, time 3.49667 min): 0.115 µM and 0.07268 µM and 0.1031 µM | SPE-MS determined concentration of hydroxylated HIF-1a peptide (FIH; 1 uM compound 14, time 4.19733 min): 0.119 µM | SPE-MS determined concentration of hydroxylated HIF-1a peptide (FIH; 2 uM compound 14, time 2.098 min): 0.07647 µM and 0.1051 µM and 0.08874 µM | SPE-MS determined concentration of hydroxylated HIF-1a peptide (FIH; 2 uM compound 14, time 2.797 min): 0.08846 µM and 0.1193 µM and 0.1194 µM | SPE-MS determined concentration of hydroxylated HIF-1a peptide (FIH; 2 uM compound 14, time 3.49667 min): 0.1173 µM and 0.1355 µM and 0.125 µM | SPE-MS determined concentration of hydroxylated HIF-1a peptide (FIH; 2 uM compound 14, time 4.19733 min): 0.1246 µM and 0.1503 µM and 0.1494 µM | SPE-MS determined concentration of hydroxylated HIF-1a peptide (FIH; 4 uM compound 14, time 0.699833 min): 0.04117 µM and 0.06069 µM and 0.06774 µM | SPE-MS determined concentration of hydroxylated HIF-1a peptide (FIH; 4 uM compound 14, time 2.098 min): 0.09804 µM and 0.1128 µM and 0.1303 µM | SPE-MS determined concentration of hydroxylated HIF-1a peptide (FIH; 4 uM compound 14, time 2.797 min): 0.119 µM and 0.1335 µM and 0.1587 µM | SPE-MS determined concentration of hydroxylated HIF-1a peptide (FIH; 4 uM compound 14, time 3.49667 min): 0.1494 µM and 0.1576 µM and 0.1863 µM | SPE-MS determined concentration of hydroxylated HIF-1a peptide (FIH; 4 uM compound 14, time 4.19733 min): 0.1634 µM and 0.187 µM and 0.2105 µM | SPE-MS determined concentration of hydroxylated HIF-1a peptide (FIH; 8 uM compound 14, time 0.699833 min): 0.05237 µM and 0.05984 µM and 0.05853 µM | SPE-MS determined concentration of hydroxylated HIF-1a peptide (FIH; 8 uM compound 14, time 2.098 min): 0.1084 µM and 0.1284 µM and 0.1223 µM | SPE-MS determined concentration of hydroxylated HIF-1a peptide (FIH; 8 uM compound 14, time 2.797 min): 0.1357 µM and 0.1566 µM and 0.1624 µM | SPE-MS determined concentration of hydroxylated HIF-1a peptide (FIH; 8 uM compound 14, time 3.49667 min): 0.1592 µM and 0.1706 µM and 0.1851 µM | SPE-MS determined concentration of hydroxylated HIF-1a peptide (FIH; 8 uM compound 14, time 4.19733 min): 0.1873 µM and 0.2041 µM and 0.2053 µM | SPE-MS determined concentration of hydroxylated HIF-1a peptide (FIH; 16 uM compound 14, time 0.699833 min): 0.04301 µM and 0.07322 µM and 0.06274 µM | SPE-MS determined concentration of hydroxylated HIF-1a peptide (FIH; 16 uM compound 14, time 2.098 min): 0.1098 µM and 0.1258 µM and 0.1325 µM | SPE-MS determined concentration of hydroxylated HIF-1a peptide (FIH; 16 uM compound 14, time 2.797 min): 0.1413 µM and 0.1532 µM and 0.1654 µM | SPE-MS determined concentration of hydroxylated HIF-1a peptide (FIH; 16 uM compound 14, time 3.49667 min): 0.1747 µM and 0.1882 µM and 0.2002 µM | SPE-MS determined concentration of hydroxylated HIF-1a peptide (FIH; 16 uM compound 14, time 4.19733 min): 0.1989 µM and 0.216 µM and 0.231 µM | SPE-MS determined concentration of hydroxylated HIF-1a peptide (FIH; 32 uM compound 14, time 0.699833 min): 0.0551 µM and 0.06691 µM and 0.07521 µM | SPE-MS determined concentration of hydroxylated HIF-1a peptide (FIH; 32 uM compound 14, time 2.098 min): 0.1143 µM and 0.1231 µM and 0.1358 µM | SPE-MS determined concentration of hydroxylated HIF-1a peptide (FIH; 32 uM compound 14, time 2.797 min): 0.1568 µM and 0.1531 µM and 0.1667 µM | SPE-MS determined concentration of hydroxylated HIF-1a peptide (FIH; 32 uM compound 14, time 3.49667 min): 0.1879 µM and 0.1751 µM and 0.1995 µM | SPE-MS determined concentration of hydroxylated HIF-1a peptide (FIH; 32 uM compound 14, time 4.19733 min): 0.214 µM and 0.2049 µM and 0.2308 µM | slope of initial reaction rate (FIH; CA1-20, 1 μM 14): 0.002761 and 0.002095 and 0.002277 | slope of initial reaction rate (FIH; CA1-20, 2 μM 14): 0.00488 and 0.004776 and 0.004739 | slope of initial reaction rate (FIH; CA1-20, 4 μM 14): 0.007334 and 0.006606 and 0.007233 | slope of initial reaction rate (FIH; CA1-20, 8 μM 14): 0.009175 and 0.0109 and 0.00922 | slope of initial reaction rate (FIH; CA1-20, 16 μM 14): 0.01109 and 0.0126 and 0.01075 | slope of initial reaction rate (FIH; CA1-20, 32 μM 14): 0.01017 and 0.00931 and 0.01176 | slope of initial reaction rate (FIH; HIF-1a788-822, 0.5 μM 14): 0.000241 and 0.000243 and 0.000366 | slope of initial reaction rate (FIH; HIF-1a788-822, 1 μM 14): 0.000319 and 0.00043 and 0.000499 | slope of initial reaction rate (FIH; HIF-1a788-822, 2 μM 14): 0.000549 and 0.000605 and 0.000685 | slope of initial reaction rate (FIH; HIF-1a788-822, 4 μM 14): 0.000653 and 0.000643 and 0.000856 | slope of initial reaction rate (FIH; HIF-1a788-822, 8 μM 14): 0.000767 and 0.000839 and 0.000864 | slope of initial reaction rate (FIH; HIF-1a788-822, 16 μM 14): 0.00082 and 0.000767 and 0.000893 | slope of initial reaction rate (FIH; HIF-1a788-822, 32 μM 14): 0.000874 and 0.000847 and 0.00081 | AspH-catalyzed hydroxylation of hFX-EGFD1_86–124-4Ser (AspH; Fig 2f, 100 μM 14, absence of 2OG): not observed | AspH catalysis (AspH; Supplementary Fig 27, tenfold excess of 14 over 100 μM 2OG): entirely suppressed
